Laboratory results taken from patent publication US6933304B2, “Heteroarylalkanoic acids as integrin receptor antagonists” (Pharmacia Corporation, priority 2000, dated 2005).

How the values were obtained:
[1] = target: T1, αVβ6 (HT-29 human colon carcinoma cells) (Homo sapiens, UniProt P06756+P18564); experiment: HT-29 cell adhesion assay (adhesion to immobilized LAP); assay type: cell-based; settings: selectivity ratio: IC50 αVβ6 (HT-29) over IC50 β3
T1 construct: endogenous in cells; host or cells: HT-29 human colon carcinoma cells
Protocol: To evaluate compound potency for membrane-bound αVβ6 an additional cell-based adhesion assay was established using the HT-29 human colon carcinoma cell line. High surface expression of αVβ6 on HT-29 cells was confirmed by flow cytometry. Conditions were established in which cell adhesion to immobilized human latency associated peptide (LAP) was mediated by the αVβ6, as determined by a panel of integrin-specific, neutralizing monoclonal antibodies. Briefly, cells were incubated with inhibitor in the presence of 200 uM Mn^2+, allowed to adhere to immobilized LAP, washed, and adherent cells are detected by quantifying endogenous alkaline phosphatase using para-nitrophenyl phosphate. An 8-point dose-response curve using either 10-fold or 3-fold dilutions of compound was evaluated by fitting a four-parameter logistic, nonlinear model (using SAS). The compounds evaluated were relatively ineffective at inhibition of αVβ6-mediated cell adhesion. The selective antagonism of the αVβ3 integrin is viewed as desirable in this class of compounds, as αVβ6 may also play a role in normal physiological processes of tissue repair and cellular turnover that routinely occur in the skin and pulmonary tissues.

[2] = target: T2, αVβ3 integrin (293-β3 cells) (Homo sapiens, UniProt P05106+P06756); experiment: 293-β3 cell adhesion assay (adhesion to immobilized vitronectin); assay type: cell-based; settings: 200 uM Mn2+, read-out: 293-β3 (IC50 <10 μM)
T2 construct: expressed in transfected cells; host or cells: 293 human embryonic kidney cells (293-β3)
Source text: While the β3 subunit of αVβ3 is only known to complex with αV or αIIb, the αV subunit complexes with multiple β subunits. The three αV integrins most homologous with αVβ3 are αVβ1, αVβ5 and αVβ6, with 43%, 56% and 47% amino acid identity in the β subunits, respectively. To evaluate the selectivity of compounds between the integrins αVβ3 and αVβ6, cell-based assays were established using the 293 human embryonic kidney cell line. 293 cells express αVβ1, but little to no detectable αVβ3 or αVβ6. cDNAs for β3 and β6 were transfected separately into 293 cells to generate 293-β3 and 293-β6 cells, respectively. High surface expression of αVβ3 and αVβ6 was confirmed by flow cytometry. Conditions were established for each cell line in which cell adhesion to immobilized human vitronectin was mediated by the appropriate integrin, as determined by a panel of integrin-specific, neutralizing monoclonal antibodies. Briefly, cells were incubated with inhibitor in the presence of 200 uM Mn^2+, allowed to adhere to immobilized vitronectin, washed, and adherent cells are detected endogenous alkaline phosphatase and para-nitrophenyl phosphate. An 8-point dose-response curve using either 10-fold or 3-fold dilutions of compound was evaluated by fitting a four-parameter logistic, nonlinear model (using SAS).

[3] = target: T3, Human fibrinogen receptor (IIb/IIIa) (Homo sapiens, UniProt P05106+P08514); experiment: Purified IIb/IIIa receptor assay (solid phase receptor assay, SPRA); assay type: binding; settings: selectivity ratio: IC50 αIIbβ3 (solid phase receptor assay) over IC50 β3
T3 construct: Human fibrinogen receptor (IIb/IIIa) was purified from outdated platelets; from tissue; host or cells: outdated human platelets
Source text: Human fibrinogen receptor (IIb/IIIa) was purified from outdated platelets. (Pytela, R., Pierschbacher, M. D., Argraves, S., Suzuki, S., and Rouslahti, E. “Arginine-Glycine-Aspartic acid adhesion receptors”, Methods in Enzymology 144(1987):475-489.) Human vitronectin was purified from fresh frozen plasma as described in Yatohgo, T., Izumi, M., Kashiwagi, H., and Hayashi, M., “Novel purification of vitronectin from human plasma by heparin affinity chromatography,” Cell Structure and Function 13(1988):281-292. Biotinylated human vitronectin was prepared by coupling NHS-biotin from Pierce Chemical Company (Rockford, IL) to purified vitronectin as previously described. (Charo, I. F., Nannizzi, L., Phillips, D. R., Hsu, M. A., Scarborough, R. M., “Inhibition of fibrinogen binding to GP IIb/IIIa by a GP IIIa peptide”, J. Biol. Chem. 266(3)(1991): 1415-1421.) Assay buffer, OPD substrate tablets, and RIA grade BSA were obtained from Sigma (St. Louis, Mo.). Anti-biotin antibody was obtained from Sigma (St. Louis, Mo.). Nalge Nunc-Immuno microtiter plates were obtained from (Rochester, N.Y.). ADP reagent was obtained from Sigma (St. Louis, Mo.).
This assay is essentially the same reported in Niiya, K., Hodson, E., Bader, R., Byers-Ward, V. Koziol, J. A., Plow, E. F. and Ruggeri, Z. M., “Increased surface expression of the membrane glycoprotein IIb/IIIa complex induced by platelet activation: Relationships to the binding of fibrinogen and platelet aggregation”, Blood 70(1987):475-483. The purified human fibrinogen receptor (IIb/IIIa) was diluted from stock solutions to 1.0 μg/mL in Tris-buffered saline containing 1.0 mM Ca^++, Mg^++, and Mn^++, pH 7.4 (TBS^+++). The diluted receptor was immediately transferred to Nalge Nunc-Immuno microtiter plates at 100 μL/well (100 ng receptor/well). The plates were sealed and incubated overnight at 4° C. to allow the receptors to bind to the wells. All remaining steps were at room temperature. The assay plates were emptied and 200 μL of 1% RIA grade BSA in TBS^+++ (TBS^+++/BSA) were added to block exposed plastic surfaces. Following a 2 hour incubation, the assay plates were washed with TBS^+++ using a 96 well plate washer. Logarithmic serial dilution of the test compound and controls were made starting at a stock concentration of […] and using 2 nM biotinylated vitronectin in TBS^+++/BSA as the diluent. This premixing of labeled ligand with test (or control) ligand, and subsequent transfer of 50 μL aliquots to the assay plate was carried out with a CETUS Propette robot; the final concentration of the labeled ligand was 1 nM and the highest concentration of test compound was 1.0×10^−4 M. The competition occurred for two hours after which all wells were washed with a plate washer as before. Affinity purified horseradish peroxidase labeled goat anti-biotin antibody was diluted 1:2000 in TBS^+++/BSA and 125 μL were added to each well. After 45 minutes, the plates were washed and incubated with […] substrate in 100 mM/L citrate buffer, pH 5.0. The plate was read with a microtiter plate reader at a wavelength of 450 nm and when the maximum-binding control wells reached an absorbance of about 1.0, the final A450 were recorded for analysis. The data were analyzed using a macro written for use with the EXCELJ spreadsheet program. The mean, standard deviation, and %CV were determined for duplicate concentrations. The mean A450 values were normalized to the mean of four maximum-binding controls (no competitor added)(B-MAX). The normalized values were subjected to a four parameter curve fit algorithm, [Robard et al., Int.

T2 sequence (P06756 31-889 limits assumed): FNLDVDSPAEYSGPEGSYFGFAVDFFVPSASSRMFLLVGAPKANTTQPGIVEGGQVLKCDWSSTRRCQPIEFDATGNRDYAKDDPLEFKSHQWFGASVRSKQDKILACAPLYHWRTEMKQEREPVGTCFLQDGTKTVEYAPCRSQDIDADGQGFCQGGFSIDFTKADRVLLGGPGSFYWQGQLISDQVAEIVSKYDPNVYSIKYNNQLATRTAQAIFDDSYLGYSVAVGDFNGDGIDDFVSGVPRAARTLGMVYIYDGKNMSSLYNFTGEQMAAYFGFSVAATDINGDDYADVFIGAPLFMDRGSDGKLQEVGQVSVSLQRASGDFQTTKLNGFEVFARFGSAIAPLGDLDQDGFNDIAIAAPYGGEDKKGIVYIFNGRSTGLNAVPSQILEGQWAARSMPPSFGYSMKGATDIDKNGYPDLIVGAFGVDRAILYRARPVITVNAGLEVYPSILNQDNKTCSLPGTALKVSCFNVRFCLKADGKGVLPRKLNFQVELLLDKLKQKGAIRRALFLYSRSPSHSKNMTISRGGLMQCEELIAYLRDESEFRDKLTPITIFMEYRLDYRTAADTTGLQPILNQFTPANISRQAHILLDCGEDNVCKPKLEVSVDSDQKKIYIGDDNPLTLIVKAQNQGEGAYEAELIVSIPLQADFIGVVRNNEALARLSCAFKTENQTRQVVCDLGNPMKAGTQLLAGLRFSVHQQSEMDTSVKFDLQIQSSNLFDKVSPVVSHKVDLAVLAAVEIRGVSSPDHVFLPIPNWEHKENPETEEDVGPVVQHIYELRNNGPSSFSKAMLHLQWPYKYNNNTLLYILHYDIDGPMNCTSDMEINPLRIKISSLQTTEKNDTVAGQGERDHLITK
T2 sequence (P06756 891-1048 partner limits assumed): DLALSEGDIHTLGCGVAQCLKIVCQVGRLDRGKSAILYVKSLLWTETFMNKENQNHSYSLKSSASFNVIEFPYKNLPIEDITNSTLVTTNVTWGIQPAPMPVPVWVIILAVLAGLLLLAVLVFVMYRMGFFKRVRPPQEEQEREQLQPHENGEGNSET
T2 sequence (P05106 27-788): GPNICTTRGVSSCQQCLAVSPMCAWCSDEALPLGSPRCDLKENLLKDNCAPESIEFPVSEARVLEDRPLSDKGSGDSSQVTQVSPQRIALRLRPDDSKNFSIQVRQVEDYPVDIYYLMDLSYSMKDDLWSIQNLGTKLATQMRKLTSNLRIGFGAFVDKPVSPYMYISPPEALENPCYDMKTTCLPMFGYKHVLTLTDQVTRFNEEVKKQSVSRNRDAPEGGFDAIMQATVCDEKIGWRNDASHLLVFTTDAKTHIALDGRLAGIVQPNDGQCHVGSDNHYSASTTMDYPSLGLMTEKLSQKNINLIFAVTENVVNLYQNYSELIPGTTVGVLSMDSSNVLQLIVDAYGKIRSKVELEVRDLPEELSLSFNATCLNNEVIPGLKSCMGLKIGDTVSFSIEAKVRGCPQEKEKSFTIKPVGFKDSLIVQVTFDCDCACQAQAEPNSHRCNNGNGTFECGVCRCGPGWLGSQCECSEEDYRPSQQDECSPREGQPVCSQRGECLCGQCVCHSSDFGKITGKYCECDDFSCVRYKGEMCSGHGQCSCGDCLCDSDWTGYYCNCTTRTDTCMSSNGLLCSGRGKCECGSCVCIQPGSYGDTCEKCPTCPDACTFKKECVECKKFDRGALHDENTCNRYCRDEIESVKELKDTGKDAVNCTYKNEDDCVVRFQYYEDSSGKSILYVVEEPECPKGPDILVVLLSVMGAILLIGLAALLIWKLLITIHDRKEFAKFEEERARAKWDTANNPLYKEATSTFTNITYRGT
T1 sequence (P06756 31-889 limits assumed): as the sequence (P06756 31-889 limits assumed) above
T1 sequence (P06756 891-1048 partner limits assumed): as the sequence (P06756 891-1048 partner limits assumed) above
T1 sequence (P18564 22-788): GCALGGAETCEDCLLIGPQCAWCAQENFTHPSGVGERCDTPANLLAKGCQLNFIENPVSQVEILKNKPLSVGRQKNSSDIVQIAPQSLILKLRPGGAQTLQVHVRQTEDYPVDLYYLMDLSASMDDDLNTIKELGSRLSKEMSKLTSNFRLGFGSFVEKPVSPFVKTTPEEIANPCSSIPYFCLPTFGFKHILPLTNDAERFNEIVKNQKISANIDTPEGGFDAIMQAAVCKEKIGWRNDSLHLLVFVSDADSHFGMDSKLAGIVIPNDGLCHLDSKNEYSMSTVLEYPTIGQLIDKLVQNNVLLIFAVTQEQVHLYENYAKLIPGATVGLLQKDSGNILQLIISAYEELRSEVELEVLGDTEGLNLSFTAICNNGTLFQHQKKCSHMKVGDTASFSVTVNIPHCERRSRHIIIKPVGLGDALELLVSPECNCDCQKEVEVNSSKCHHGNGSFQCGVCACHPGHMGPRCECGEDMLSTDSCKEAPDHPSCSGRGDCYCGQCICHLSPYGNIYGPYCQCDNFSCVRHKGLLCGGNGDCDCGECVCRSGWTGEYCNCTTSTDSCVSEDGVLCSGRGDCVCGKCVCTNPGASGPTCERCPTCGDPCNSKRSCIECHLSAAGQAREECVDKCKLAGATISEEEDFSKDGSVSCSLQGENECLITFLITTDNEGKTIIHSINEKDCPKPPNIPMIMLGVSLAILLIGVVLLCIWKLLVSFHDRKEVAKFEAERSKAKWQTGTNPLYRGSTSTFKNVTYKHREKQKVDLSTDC
T3 sequence (P08514 32-887 limits assumed): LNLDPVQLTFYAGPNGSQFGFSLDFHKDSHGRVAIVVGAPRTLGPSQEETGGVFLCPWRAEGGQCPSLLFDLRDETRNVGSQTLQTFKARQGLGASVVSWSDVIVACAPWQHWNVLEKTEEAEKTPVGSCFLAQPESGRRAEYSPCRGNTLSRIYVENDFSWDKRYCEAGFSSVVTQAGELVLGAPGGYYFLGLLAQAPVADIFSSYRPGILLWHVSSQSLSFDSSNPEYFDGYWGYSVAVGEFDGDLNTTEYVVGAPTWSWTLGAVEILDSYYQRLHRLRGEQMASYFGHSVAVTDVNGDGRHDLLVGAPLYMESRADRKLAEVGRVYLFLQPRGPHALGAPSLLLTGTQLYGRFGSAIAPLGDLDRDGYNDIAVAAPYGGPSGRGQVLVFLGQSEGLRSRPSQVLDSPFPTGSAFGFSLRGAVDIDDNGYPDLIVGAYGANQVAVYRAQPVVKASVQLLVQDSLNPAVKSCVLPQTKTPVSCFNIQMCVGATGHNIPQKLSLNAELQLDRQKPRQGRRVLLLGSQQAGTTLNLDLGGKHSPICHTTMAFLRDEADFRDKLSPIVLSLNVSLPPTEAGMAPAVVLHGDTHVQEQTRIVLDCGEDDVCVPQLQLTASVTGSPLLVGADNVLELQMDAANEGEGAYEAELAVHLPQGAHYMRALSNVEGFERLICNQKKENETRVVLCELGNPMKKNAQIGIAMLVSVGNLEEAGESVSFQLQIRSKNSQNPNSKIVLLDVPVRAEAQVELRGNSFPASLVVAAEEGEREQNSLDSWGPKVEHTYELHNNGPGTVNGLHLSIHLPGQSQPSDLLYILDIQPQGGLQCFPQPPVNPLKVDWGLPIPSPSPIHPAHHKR
T3 sequence (P08514 891-1039 partner limits assumed): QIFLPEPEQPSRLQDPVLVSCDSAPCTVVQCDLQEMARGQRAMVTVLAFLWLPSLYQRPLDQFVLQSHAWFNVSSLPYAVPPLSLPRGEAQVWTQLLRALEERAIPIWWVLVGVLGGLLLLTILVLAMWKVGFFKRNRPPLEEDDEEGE
T3 sequence (P05106 27-788): as the sequence (P05106 27-788) above

## CC(CC(=O)O)Cc1nc(CCCc2ccc3c(n2)NCCC3)no1 (stereo not drawn) [Example 70, 3-methyl-4-{3-[3-(5,6,7,8-tetrahydro-1,8-naphthyridin-2-yl)propyl]-1,2,4-oxadiazol-5-yl}butanoic acid]
[1]
  HT-29 β-6 Selectivity* (β6/β3): +++ (Selectivity Ratio >100 +++)
[2]
  IC50: < 10 µM
[3]
  SPRA AIIbB3 Selectivity* IIbIIIa/β3: +++ (Selectivity Ratio >100 +++)

## COc1ccc(C(CC(=O)O)Cc2nc(CCCc3ccc4c(n3)NCCC4)no2)cc1.O=C(O)C(F)(F)F (stereo not drawn) [Example 22, 3-(4-methoxyphenyl)-4-{3-[3-(5,6,7,8-tetrahydro-1,8-naphthyridin-2-yl)propyl]-1,2,4-oxadiazol-5-yl}butanoic acid]
[1]
  HT-29 β-6 Selectivity* (β6/β3): +++ (Selectivity Ratio >100 +++)
[2]
  IC50: < 10 µM
[3]
  SPRA AIIbB3 Selectivity* IIbIIIa/β3: +++ (Selectivity Ratio >100 +++)

## COc1ccc(C(CC(=O)O)Cc2nc(CCCCNc3ccccn3)no2)cc1.O=C(O)C(F)(F)F (stereo not drawn) [Example 23, 3-(4-methoxyphenyl)-4-{3-[4-(pyridin-2-ylamino)butyl]-1,2,4-oxadiazol-5-yl}butanoic acid]
[1]
  HT-29 β-6 Selectivity* (β6/β3): +++ (Selectivity Ratio >100 +++)
[2]
  IC50: < 10 µM
[3]
  SPRA AIIbB3 Selectivity* IIbIIIa/β3: ++ (Selectivity Ratio of 10-100 ++)

## CC(C)C(C)(CC(=O)O)Cc1nc(CCCCNc2ccccn2)no1 (stereo not drawn) [Example 39, 3,4-dimethyl-3-({3-[4-(pyridin-2-ylamino)butyl]-1,2,4-oxadiazol-5-yl}methyl)-pentanoic acid]
[1]
  HT-29 β-6 Selectivity* (β6/β3): ++ (Selectivity Ratio of 10-100 ++)
[2]
  IC50: < 10 µM
[3]
  SPRA AIIbB3 Selectivity* IIbIIIa/β3: ++ (Selectivity Ratio of 10-100 ++)

## CC(C)(CC(=O)O)Cc1nc(CCCc2ccc3c(n2)NCCC3)no1.O=C(O)C(F)(F)F [Example 12, 3,3-dimethyl-4-{3-[3-(5,6,7,8-tetrahydro-1,8-naphthyridin-2-yl)propyl]-1,2,4-oxadiazol-5-yl}butanoic acid]
[1]
  HT-29 β-6 Selectivity* (β6/β3): +++ (Selectivity Ratio >100 +++)
[2]
  IC50: < 10 µM
[3]
  SPRA AIIbB3 Selectivity* IIbIIIa/β3: +++ (Selectivity Ratio >100 +++)

## CC(C)C(C)(CC(=O)O)Cc1nc(CCCc2ccc3c(n2)NCCC3)no1 (stereo not drawn) [Example 46, 3,4-Dimethyl-3-{3-[3-(5,6,7,8-tetrahydro-[1,8]naphthyridin-2-yl)-propyl]-[1,2,4]oxadiazol-5-ylmethyl}-pentanoic acid]
[1]
  HT-29 β-6 Selectivity* (β6/β3): +++ (Selectivity Ratio >100 +++)
[2]
  IC50: < 10 µM
[3]
  SPRA AIIbB3 Selectivity* IIbIIIa/β3: +++ (Selectivity Ratio >100 +++)

## COc1cccc(C(CC(=O)O)Cc2nc(CCCCNc3ccccn3)no2)c1.O=C(O)C(F)(F)F (stereo not drawn) [Example 21, 3-(3-methoxyphenyl)-4-{3-[4-(pyridin-2-ylamino)butyl]-1,2,4-oxadiazol-5-yl}butanoic acid]
[1]
  HT-29 β-6 Selectivity* (β6/β3): +++ (Selectivity Ratio >100 +++)
[2]
  IC50: < 10 µM
[3]
  SPRA AIIbB3 Selectivity* IIbIIIa/β3: ++ (Selectivity Ratio of 10-100 ++)

## O=C(O)C(F)(F)F.O=C(O)CC(Cc1nc(CCCc2ccc3c(n2)NCCC3)no1)c1cccc(C(F)(F)F)c1 (stereo not drawn) [Example 28, 4-{3-[3-(5,6,7,8-tetrahydro-1,8-naphthyridin-2-yl)propyl]-1,2,4-oxadiazol-5-yl}-3-[3-(trifluoromethyl)phenyl]butanoic acid]
[1]
  HT-29 β-6 Selectivity* (β6/β3): +++ (Selectivity Ratio >100 +++)
[2]
  IC50: < 10 µM
[3]
  SPRA AIIbB3 Selectivity* IIbIIIa/β3: +++ (Selectivity Ratio >100 +++)

## O=C(O)CCCc1nc(CCCc2ccc3c(n2)NCCC3)no1 [Example 50, 4-{3-[3-(5,6,7,8-Tetrahydro-[1,8]naphthyridin-2-yl)-propyl]-[1,2,4]oxadiazol-5-yl}-butyric acid]
[1]
  HT-29 β-6 Selectivity* (β6/β3): +++ (Selectivity Ratio >100 +++)
[2]
  IC50: < 10 µM
[3]
  SPRA AIIbB3 Selectivity* IIbIIIa/β3: +++ (Selectivity Ratio >100 +++)

## O=C(O)C(F)(F)F.O=C(O)CC(Cc1nc(CCCc2ccc3c(n2)NCCC3)no1)c1cccc(F)c1 (stereo not drawn) [Example 24, 3-(3-fluorophenyl)-4-{3-[3-(5,6,7,8-tetrahydro-1,8-naphthyridin-2-yl)propyl]-1,2,4-oxadiazol-5-yl}butanoic acid]
[1]
  HT-29 β-6 Selectivity* (β6/β3): +++ (Selectivity Ratio >100 +++)
[2]
  IC50: < 10 µM
[3]
  SPRA AIIbB3 Selectivity* IIbIIIa/β3: +++ (Selectivity Ratio >100 +++)

## CC(CC(=O)O)(Cc1nc(CCCc2ccc3c(n2)NCCC3)no1)c1cccnc1 (stereo not drawn) [Example 51, 3-Methyl-3-pyridin-3-yl-4-{3-[3-(5,6,7,8-tetrahydro-[1,8]naphthyridin-2-yl)-propyl]-[1,2,4]oxadiazol-5-yl}-butyric acid]
[1]
  HT-29 β-6 Selectivity* (β6/β3): +++ (Selectivity Ratio >100 +++)
[2]
  IC50: < 10 µM
[3]
  SPRA AIIbB3 Selectivity* IIbIIIa/β3: +++ (Selectivity Ratio >100 +++)

## CCC(CC)(CC(=O)O)Cc1nc(CCCCNc2ccccn2)no1 [Example 40, 3-ethyl-3-({3-[4-(pyridin-2-ylamino)butyl]-1,2,4-oxadiazol-5-yl}methyl)-pentanoic acid]
[1]
  HT-29 β-6 Selectivity* (β6/β3): ++ (Selectivity Ratio of 10-100 ++)
[2]
  IC50: < 10 µM
[3]
  SPRA AIIbB3 Selectivity* IIbIIIa/β3: +++ (Selectivity Ratio >100 +++)
